We go through three compounds from patent US8324267B2, “Kinase inhibitors and the use thereof” (Forschungzentrum Karlsruhe GmbH, priority 2001, dated 2012).

As a reminder, the inhibition is the drop in the measured response relative to a control, in per cent.

Test [1] has as its target T1, VEGFR-2 (Homo sapiens, UniProt P35968). Kind of test: In vitro tyrosine kinase assay (ELISA, GST kinase, polyGlu,Tyr 4:1 acceptor). The conditions noted are these: read-out: inhibition (−) or stimulation (+) of kinase activity relative to the control; for inhibition at 1 µg/mL: inhibitor 1 μg/ml; for inhibition at 10 µg/mL: inhibitor 10 μg/ml. It is filed as biochemical. The protocol:
The inhibition of various receptor tyrosine kinases in vitro by MAE87, MAE106 and MAZ51 was investigated. The inhibitors were investigated in 2 different concentrations (1 μg/ml and 10 μg/ml). The inhibition is stated in %. “+”=stimulation of kinase activity relative to the control,
“−”=inhibition of kinase activity relative to the control.
The activity of the RTK inhibitors were determined with the aid of an ELISA. In this assay, the corresponding kinases were employed as recombinant GST fusion proteins (glutathione S-transferase). Synthetic polyGlu, Tyr 4:1 is used as acceptor. The ability of different concentrations of the test substances to inhibit the RTK-mediated phosphorylation of the abovementioned acceptor was assessed. All the tests were carried out in duplicate.
ELISA plates were coated with 0.2 mg/ml of polyGlu, Tyr 4:1 in 100 mM bicarbonate buffer (pH 9.6) overnight. This solution was removed and the microtiter plates were washed twice with TBS buffer (10 mM Tris-HCl, pH 8.1, 100 mM NaCl) and then blocked with 5% BSA/TBS for 30 min. 50 μl of test substance (2 or 20 μg/ml in 10% DMSO), 25 μl of GST kinase in 4× kinase buffer (200 mM HEPES, 100 mM NaCl, 80 μM Na3VO4 and 0.04% BSA) were introduced. The reaction was started by adding 25 μl of 160 μM ATP (in 40 mM MnCl2) as substrate of the kinases. The final concentrations of the test compounds is thus 1 or 10 μg/ml in 5% DMSO. The GST fusion proteins were employed in the following concentrations. VEGFR-2 50 NG/well, VEGFR-3 300 ng/well, Tie2 300 ng/well, EGFR 50 ng/well, ErbB2 200 ng/well, IGF-1R 50 ng/well, FGFR1 200 ng/well. The reaction mixture was incubated at 30° C. for 90 min. The kinase reaction was stopped by adding 50 μl of 30 mM EDTA/well. The microtiter plates were washed twice with 0.05% Tween20/TBS. Anti-phosphotyrosine antibody (1:500) was added in 0.05% Tween20/TBS (with 0.5% BSA, 0.025% skimmed milk powder and 100 μM Na3VO4) and incubated at 37° C. for 1 h. The microtiter plates were washed three times with 0.05% Tween20/TBS. The HRP-conjugated detection autibody (1:1000) was added in 0.05% Tween20/TBS (with 0.5% BSA, 0.025% skimmed milk powder and 100 μM Na3VO4) and incubated at 37° C. for 1 h. The microtiter plates were washed three times with 0.05% Tween20/TBS. ABTS (2,2′-azino-di-(3-ethylbenz-thiazoline-6-sulfonate)) substrate (Roche Diagnostics GmbH, Mannheim) was added. The OD was determined at 405 nm using an ELISA reader.

For test [2], the target named is T1, VEGFR-2. Kind of test: Ligand-induced autophosphorylation in VEGFR-2-expressing PAE cells (immunoprecipitation, Western blot). It is filed as cell-based. The conditions noted are these: PAE/VEGFR-2 cells, VEGF stimulated; 0.5, 5 or 50 μM; FIG. 1. On the procedure: VEGFR-2- and VEGFR-3-expressing PAE cells (pig aorta endothel cells) were incubated with 0.5 μM, 5 μM or 50 μM of the appropriate test compound. The cells were then stimulated with VEGF (VEGFR-2) or VEGF-C (VEGFR-3) or without growth factor as negative control. The cells were harvested after 15 min and immunoprecipitated with VEGFR-2 or VEGFR-3. The immunoprecipitates were blotted after electrophoresis and investigated with anti-phosphotyrosine antibody. The blots were detached and investigated with VEGFR-2 or VEGFR-3 antibody to check the loading.
PAE/VEGFR-2 or PAE/VEGFR-3 were seeded in 15 cm tissue culture tissues and cultivated to 50% confluence. The cells were then starved in serum-free medium (with 0.2% BSA) for 16-24 h (PAE/VEGFR-3) or 72 h […]. After preincubation with 5 ml of 1 mM serum-free medium (1 mM Na3VO4) and various inhibitor concentrations for 30-60 min, the cells were stimulated at 37° C. for 5 min (VEGFR-3) or 8 min (VEGFR-2). The cells were then rapidly washed twice with ice-cold PBS (with 1 mM Na3VO4) and lysed with ice-cold modified RIPA buffer (30 mM Tris-HCl, pH 7.4, 150 mM NaCl, 1 mM EDTA, 0.5% (v/v) Triton X100, 0.5% (w/v) sodium deoxycholate, 10 mM NaF) freshly prepared with 1 mM PMSF, 0.1 U/ml aprotinin, 10 ng/ml leupeptin and 5 mM Na3VO4. The cells were harvested from the plate with the aid of a rubber policeman and collected in centrifuge tubes on ice. The lysates were solubilized by forcing through a syringe with a 25 G needle, and were centrifuged at 4° C./13 000 rpm for 15 min to remove insoluble constituents.
The clear lysates were incubated with 4 μg of anti-VEGFR-2 (C-1158, Santa Cruz) or […] at 4° C. overnight.
The receptor-antibody complex was precipitated by adding 30 μl of protein A-Sepharose (Amersham)/tube and incubating at 4° C. for a further 2 hours. […]

T1 sequence (P35968 20-1356): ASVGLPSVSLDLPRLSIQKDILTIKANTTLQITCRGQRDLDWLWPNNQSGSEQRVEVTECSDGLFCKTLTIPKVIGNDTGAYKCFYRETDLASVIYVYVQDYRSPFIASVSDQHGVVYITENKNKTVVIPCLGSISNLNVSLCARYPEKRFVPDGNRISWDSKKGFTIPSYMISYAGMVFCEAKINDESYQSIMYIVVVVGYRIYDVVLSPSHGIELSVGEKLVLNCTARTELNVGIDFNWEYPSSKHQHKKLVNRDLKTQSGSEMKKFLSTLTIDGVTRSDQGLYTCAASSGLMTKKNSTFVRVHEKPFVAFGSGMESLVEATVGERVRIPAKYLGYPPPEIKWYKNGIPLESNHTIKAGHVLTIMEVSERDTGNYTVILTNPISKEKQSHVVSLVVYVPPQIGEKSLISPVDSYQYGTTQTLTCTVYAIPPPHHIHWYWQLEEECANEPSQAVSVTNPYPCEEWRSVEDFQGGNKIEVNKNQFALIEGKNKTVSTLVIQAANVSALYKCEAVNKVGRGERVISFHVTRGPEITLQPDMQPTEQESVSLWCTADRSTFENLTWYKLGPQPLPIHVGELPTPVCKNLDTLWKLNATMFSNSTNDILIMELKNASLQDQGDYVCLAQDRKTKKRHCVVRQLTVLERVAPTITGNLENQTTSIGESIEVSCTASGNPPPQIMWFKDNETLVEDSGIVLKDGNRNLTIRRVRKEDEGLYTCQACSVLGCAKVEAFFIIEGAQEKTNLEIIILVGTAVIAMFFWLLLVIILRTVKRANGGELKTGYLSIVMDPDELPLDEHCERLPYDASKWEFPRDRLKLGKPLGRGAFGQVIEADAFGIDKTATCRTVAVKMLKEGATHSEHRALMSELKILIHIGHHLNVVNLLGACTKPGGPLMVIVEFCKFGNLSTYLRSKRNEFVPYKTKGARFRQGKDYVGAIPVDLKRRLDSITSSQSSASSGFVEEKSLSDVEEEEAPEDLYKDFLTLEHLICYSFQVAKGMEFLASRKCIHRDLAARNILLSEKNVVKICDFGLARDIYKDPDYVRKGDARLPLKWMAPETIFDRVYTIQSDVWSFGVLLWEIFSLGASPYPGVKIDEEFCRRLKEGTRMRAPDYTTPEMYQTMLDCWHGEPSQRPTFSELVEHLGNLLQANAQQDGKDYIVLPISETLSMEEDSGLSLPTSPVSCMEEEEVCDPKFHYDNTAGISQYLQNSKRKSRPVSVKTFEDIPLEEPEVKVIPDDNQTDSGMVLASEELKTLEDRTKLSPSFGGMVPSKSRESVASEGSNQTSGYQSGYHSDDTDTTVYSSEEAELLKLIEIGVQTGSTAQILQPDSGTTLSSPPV

`O=C1Nc2ccccc2C1=Cc1ccc(O)cc1O` [MAE87, 3-(2,4-Dihydroxybenzylidene)-1,3-dihydroindol-2-one]: in test [1], the inhibition at 1 µg/mL amounted to 46% and the inhibition at 10 µg/mL was determined as 77%. For the same compound, the “inhibition of ligand-induced autophosphorylation of VEGFR-2” value (from here on “inhibition … of VEGFR-2”) in test [2] is given as “Inhibit the Ligand-Induced Autophosphorylation”.

For `COc1ccc(C=C2C(=O)Nc3ccccc32)cc1F` [MAE106, 3-(3-Fluoro-4-methoxybenzylidene)-1,3-dihydroindole-2-one], in test [1], the inhibition at 1 µg/mL is -21% and the inhibition at 10 µg/mL was 58%. The “inhibition … of VEGFR-2” value in test [2] was “Inhibit the Ligand-Induced Autophosphorylation”.

As to `CN(C)c1ccc(C=C2C(=O)Nc3ccccc32)c2ccccc12` [MAZ51, 3-(4-Dimethylaminonaphthalen-1-ylmethylene)-1,3-dihydroindol-2-one], in test [1], the inhibition at 1 µg/mL worked out at 8% and the inhibition at 10 µg/mL was 74%. In addition, in test [2], the “inhibition … of VEGFR-2” value is given as “Inhibit the Ligand-Induced Autophosphorylation”.
